≈ marks a conversion by molar mass, not a printed value.
Tests used:
Assay type in all cases: cell-based
[1] = system: C. botulinum spores; assay: microbe, parasite or virus in culture; conditions: for MIC / MBC: Clostridium botulinum; for MIC: read-out: Sporostatic MIC (mM); for MBC: read-out: Sporicidal MIC (mM)
[2] = system: P. italicum; assay: Antifungal combination of potassium sorbate and vanillin (MIC, FIC isobologram); conditions: Penicillium italicum
[3] = system: P. digitatum; assay: as above; conditions: Penicillium digitatum
[4] = system: P. glabrum; assay: as above
[5] = system: Pseudomonas aeruginosa; assay: Bactericidal / inhibitory concentration against Pseudomonas aeruginosa

For `CC=O` [Acetaldehyde], the MIC [1] was 0.78 mM (≈ 34.4 µg/mL).

Compound `O=Cc1ccccc1` [Benzaldehyde] has an MIC [1] of 0.6 mM (≈ 63.7 µg/mL).

Work on `O=CC=Cc1ccccc1` [Cinnamaldehyde] yielded an MIC [1] of 0.78 mM (≈ 103 µg/mL).

With `CCCCCCC=O` [Hepaldehyde] the “Sporicidal MIC” value [1] was over 2500 mM and the “Sporostatic MIC” value [1] was 0.60 mM.

`CC(C)C=O` [Isobutyraldehyde] was tested, and the MBC [1] was 39 mM (≈ 2810 µg/mL) and the MIC [1] was 0.6 mM (≈ 43.3 µg/mL).

In the case of `O=CCc1ccccc1` [Phenylacetaldehyde], the MIC [1] is reported as 0.6 mM (≈ 72.1 µg/mL).

With `O=CC(=O)c1ccccc1` [Phenylglyoxal] the MIC [1] was 0.6 mM (≈ 80.5 µg/mL).

`O=Cc1ccc2c(c1)OCO2` [Piperonal] showed an MIC [1] of 0.6 mM (≈ 90.1 µg/mL).

`CC(=O)C=O` [Pyruvaldehyde] was tested, and the “Sporicidal MIC” value [1] was 156 mM and the “Sporostatic MIC” value [1] was 2.44 mM.

Work on `CCCCC=O` [Valeraldehyde] yielded an MIC [1] of 2.44 mM (≈ 210 µg/mL).

With `COc1cc(C=O)ccc1O` [Vanillin] the MIC ([2]; potassium sorbate 0 PPM) was 1100 µg/mL, the MIC ([2]; potassium sorbate 100 PPM) was 300 µg/mL and the MIC ([2]; potassium sorbate 150 PPM) was 100 µg/mL. For the same compound, the MIC ([3]; potassium sorbate 0 PPM) was 1100 µg/mL, the MIC ([3]; potassium sorbate 50 PPM) was 300 µg/mL and the MIC ([3]; potassium sorbate 100 PPM) was 100 µg/mL. It also gave an MBC [1] of 1.25 mM (≈ 190 µg/mL), an MIC [1] of 0.6 mM (≈ 91.3 µg/mL) and an MIC ([4]; potassium sorbate 0 PPM) of 1200 µg/mL. For the same compound, the MIC ([4]; potassium sorbate 100 PPM) was 1100 µg/mL, the MIC ([4]; potassium sorbate 300 PPM) was 500 µg/mL and the MIC ([4]; potassium sorbate 500 PPM) was 100 µg/mL.

With `CCCCCC(C=O)=Cc1ccccc1` [α-Amylcinnamaldehyde] the MIC [1] was 0.6 mM (≈ 121 µg/mL).

For benzalkonium chloride, the “Concentration that kills Pseudomonas aeruginosa” value ([5]; benzalkonium chloride alone) was 0.13% and the “Concentration that kills Pseudomonas aeruginosa” value ([5]; when aloe vera juice is present at 10%) was 0.10%.
